Source: PubChem BioAssay (NCI)
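Growth conditions: 96-well plates. Treatment: test compound, 48 hours, 5 concentrations. Analysis: linear interpolation between bracketing concentrations; unreached endpoints set to highest concentration. TGI marks complete inhibition of growth.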

Key:
Assay in all cases: NCI-60 cell line screen, 48 h
SK-MEL-2 melanoma = tested on: SK-MEL-2 melanoma
786-0 renal = tested on: 786-0 renal
HOP-62 NSCLC = tested on: HOP-62 NSCLC
KM12 colon = tested on: KM12 colon
SK-OV-3 ovarian = tested on: SK-OV-3 ovarian
EKVX NSCLC = tested on: EKVX NSCLC
OVCAR-5 ovarian = tested on: OVCAR-5 ovarian
SF-539 CNS = tested on: SF-539 CNS
MALME-3M melanoma = tested on: MALME-3M melanoma
SNB-19 CNS = tested on: SNB-19 CNS
UACC-62 melanoma = tested on: UACC-62 melanoma
UACC-257 melanoma = tested on: UACC-257 melanoma
SNB-75 CNS = tested on: SNB-75 CNS
SN12C renal = tested on: SN12C renal
CCRF-CEM leukemia = tested on: CCRF-CEM leukemia
M14 melanoma = tested on: M14 melanoma
UO-31 renal = tested on: UO-31 renal
HOP-92 NSCLC = tested on: HOP-92 NSCLC
OVCAR-4 ovarian = tested on: OVCAR-4 ovarian
CAKI-1 renal = tested on: CAKI-1 renal
NCI-H460 lung = tested on: NCI-H460 lung
BT-549 breast = tested on: BT-549 breast
SF-268 CNS = tested on: SF-268 CNS
A549 NSCLC = tested on: A549 NSCLC
NCI/ADR-RES ovarian = tested on: NCI/ADR-RES ovarian
MDA-MB-435 = tested on: MDA-MB-435
SF-295 CNS = tested on: SF-295 CNS
HCT-15 colon = tested on: HCT-15 colon
MDA-N = tested on: MDA-N
OVCAR-3 ovarian = tested on: OVCAR-3 ovarian
PC-3 prostate = tested on: PC-3 prostate
A498 renal = tested on: A498 renal
MCF7 breast = tested on: MCF7 breast
ACHN renal = tested on: ACHN renal
RPMI-8226 leukemia = tested on: RPMI-8226 leukemia
U251 CNS = tested on: U251 CNS
MDA-MB-231 breast = tested on: MDA-MB-231 breast
HCT-116 colon = tested on: HCT-116 colon
COLO 205 colon = tested on: COLO 205 colon
NCI-H226 lung = tested on: NCI-H226 lung
SK-MEL-5 melanoma = tested on: SK-MEL-5 melanoma
TK-10 renal = tested on: TK-10 renal
NCI-H23 lung = tested on: NCI-H23 lung
NCI-H522 lung = tested on: NCI-H522 lung
SK-MEL-28 melanoma = tested on: SK-MEL-28 melanoma
DU-145 prostate = tested on: DU-145 prostate
T-47D breast = tested on: T-47D breast
LOX IMVI melanoma = tested on: LOX IMVI melanoma
SR leukemia = tested on: SR leukemia
IGROV1 ovarian = tested on: IGROV1 ovarian
RXF 393 renal = tested on: RXF 393 renal
OVCAR-8 ovarian = tested on: OVCAR-8 ovarian
K-562 leukemia = tested on: K-562 leukemia
MOLT-4 leukemia = tested on: MOLT-4 leukemia
SW-620 colon = tested on: SW-620 colon
HT29 colon = tested on: HT29 colon
HCC-2998 colon = tested on: HCC-2998 colon

## O=C(Nc1ccc2[nH]c(C(=O)N3CC(CCl)c4c3cc([N+](=O)[O-])c3ccccc43)cc2c1)Nc1ccc2[nH]c(C(=O)N3CC(CCl)c4c3cc([N+](=O)[O-])c3ccccc43)cc2c1 (centres undefined)
SK-MEL-2 melanoma
  TGI: > 100 µM
786-0 renal
  TGI: > 100 µM
HOP-62 NSCLC
  TGI: > 100 µM
KM12 colon
  TGI: > 100 µM
SK-OV-3 ovarian
  TGI: > 100 µM
EKVX NSCLC
  TGI: > 100 µM
OVCAR-5 ovarian
  TGI: > 100 µM
SF-539 CNS
  TGI: > 100 µM
MALME-3M melanoma
  TGI: > 100 µM
SNB-19 CNS
  TGI: > 100 µM
UACC-62 melanoma
  TGI: > 100 µM
UACC-257 melanoma
  TGI: > 100 µM
SNB-75 CNS
  TGI: > 100 µM
SN12C renal
  TGI: > 100 µM
CCRF-CEM leukemia
  TGI: 36.9 µM
M14 melanoma
  TGI: > 100 µM
UO-31 renal
  TGI: 41.1 µM
HOP-92 NSCLC
  TGI: > 100 µM
OVCAR-4 ovarian
  TGI: > 100 µM
CAKI-1 renal
  TGI: > 100 µM
NCI-H460 lung
  TGI: > 100 µM
BT-549 breast
  TGI: > 100 µM
SF-268 CNS
  TGI: > 100 µM
A549 NSCLC
  TGI: > 100 µM
NCI/ADR-RES ovarian
  TGI: > 100 µM
MDA-MB-435
  TGI: > 100 µM
SF-295 CNS
  TGI: > 100 µM
HCT-15 colon
  TGI: > 100 µM
MDA-N
  TGI: > 100 µM
OVCAR-3 ovarian
  TGI: > 100 µM
PC-3 prostate
  TGI: > 100 µM
A498 renal
  TGI: > 100 µM
MCF7 breast
  TGI: > 100 µM
ACHN renal
  TGI: > 100 µM
RPMI-8226 leukemia
  TGI: > 100 µM
U251 CNS
  TGI: > 100 µM
MDA-MB-231 breast
  TGI: > 100 µM
HCT-116 colon
  TGI: > 100 µM
COLO 205 colon
  TGI: > 100 µM
NCI-H226 lung
  TGI: > 100 µM
SK-MEL-5 melanoma
  TGI: > 100 µM
TK-10 renal
  TGI: > 100 µM
NCI-H23 lung
  TGI: > 100 µM
NCI-H522 lung
  TGI: > 100 µM
SK-MEL-28 melanoma
  TGI: > 100 µM
DU-145 prostate
  TGI: > 100 µM
T-47D breast
  TGI: > 100 µM

## C=C(CCC/C(C)=C/C=C/[C@@H](C)CCCc1ccoc1)C[C@@H]1OC(=O)[C@H](C)[C@@H]1O
SK-MEL-2 melanoma
  TGI: 17.7 µM
786-0 renal
  TGI: 31.5 µM
HOP-62 NSCLC
  TGI: 18.3 µM
KM12 colon
  TGI: 16.1 µM
SK-OV-3 ovarian
  TGI: 15.8 µM
EKVX NSCLC
  TGI: 19.4 µM
OVCAR-5 ovarian
  TGI: > 50 µM
SF-539 CNS
  TGI: 19.4 µM
MALME-3M melanoma
  TGI: 18.1 µM
SNB-19 CNS
  TGI: 17.8 µM
UACC-62 melanoma
  TGI: 12.3 µM
UACC-257 melanoma
  TGI: 15.1 µM
SNB-75 CNS
  TGI: 19 µM
SN12C renal
  TGI: 20.6 µM
LOX IMVI melanoma
  TGI: 21.8 µM
SR leukemia
  TGI: > 50 µM
CCRF-CEM leukemia
  TGI: 24.6 µM
M14 melanoma
  TGI: 19.9 µM
IGROV1 ovarian
  TGI: 21.7 µM
UO-31 renal
  TGI: 15.9 µM
RXF 393 renal
  TGI: 19.3 µM
HOP-92 NSCLC
  TGI: 19.6 µM
OVCAR-4 ovarian
  TGI: 20.1 µM
OVCAR-8 ovarian
  TGI: 21.3 µM
CAKI-1 renal
  TGI: 20.1 µM
NCI-H460 lung
  TGI: 29.8 µM
K-562 leukemia
  TGI: > 50 µM
BT-549 breast
  TGI: 17.1 µM
SF-268 CNS
  TGI: 18.5 µM
A549 NSCLC
  TGI: 17 µM
NCI/ADR-RES ovarian
  TGI: 19.9 µM
MDA-MB-435
  TGI: 16.3 µM
SF-295 CNS
  TGI: 19.1 µM
HCT-15 colon
  TGI: 21.3 µM
MDA-N
  TGI: 21.5 µM
OVCAR-3 ovarian
  TGI: 16 µM
PC-3 prostate
  TGI: 15.6 µM
MOLT-4 leukemia
  TGI: > 50 µM
A498 renal
  TGI: 15.3 µM
MCF7 breast
  TGI: 25.2 µM
ACHN renal
  TGI: 16.2 µM
RPMI-8226 leukemia
  TGI: 43.4 µM
U251 CNS
  TGI: 25.4 µM
MDA-MB-231 breast
  TGI: 16.9 µM
HCT-116 colon
  TGI: > 50 µM
SW-620 colon
  TGI: 23.7 µM
COLO 205 colon
  TGI: 20.5 µM
NCI-H226 lung
  TGI: 14.1 µM
HT29 colon
  TGI: > 50 µM
SK-MEL-5 melanoma
  TGI: 14.3 µM
TK-10 renal
  TGI: 25.8 µM
HCC-2998 colon
  TGI: 24.8 µM
NCI-H23 lung
  TGI: 16.6 µM
NCI-H522 lung
  TGI: 15.5 µM
SK-MEL-28 melanoma
  TGI: 19.1 µM
DU-145 prostate
  TGI: 23.5 µM
T-47D breast
  TGI: 26.2 µM
